Reference: US20240016781A1, “TREATMENT OF KRAS MUTANT CANCERS” (MEI Pharma, Inc., priority 2020, published 2024)
Read-outs that look alike come from different tables or passages of the source.

Key:
Test in all cases: 72-hour CellTiter-Glo 2.0 growth inhibition screen (single agent, 9x9 combination dose matrix);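 on Best CI Level: inhibition effect level at which the best CI was calculated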
Assay type in all cases: cell-based
[1] = tested on: NCI-H358; conditions: for EC50: NCI-H358, 72 h;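 on Best CI Level: inhibition effect level at which the best CI was calculated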
[2] = tested on: SW48; conditions: for EC50: SW48, 72 h;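 on Best CI Level: inhibition effect level at which the best CI was calculated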
[3] = tested on: SW837; conditions: for EC50: SW837, 72 h;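 on Best CI Level: inhibition effect level at which the best CI was calculated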
[4] = tested on: KYSE-410; conditions: for EC50: KYSE-410, 72 h;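 on Best CI Level: inhibition effect level at which the best CI was calculated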
[5] = tested on: HCC44; conditions: for EC50: HCC44, 72 h;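 on Best CI Level: inhibition effect level at which the best CI was calculated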
[6] = NCl-H358 (KRAS G12C), enhancer + MEI-522 (Voruciclib), 72 h
[7] = enhancer combined with MEI-522 (Voruciclib), NCl-H358 (Lung), 72 hours, inhibition data
[8] = Homo sapiens, SW48, Colorectal, Additional Single Agent Responses (inhibition, % I), 72 h
[9] = Homo sapiens, SW48, Colorectal, growth inhibition (GI) curve, single agent, 72 h
[10] = SW48 (KRAS WT), enhancer + MEI-522 (Voruciclib), 72 h;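 on Best CI Level: inhibition effect level at which the best CI was calculated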
[11] = enhancer combined with MEI-522 (Voruciclib), SW48 (Colorectal), 72 hours, inhibition data
[12] = Homo sapiens, SW837, Colorectal, Additional Single Agent Responses (inhibition, % I), 72 h
[13] = Homo sapiens, SW837, Colorectal, growth inhibition (GI) curve, single agent, 72 h
[14] = SW837 (KRAS G12C), enhancer + MEI-522 (Voruciclib), 72 h;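 on Best CI Level: inhibition effect level at which the best CI was calculated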
[15] = enhancer combined with MEI-522 (Voruciclib), SW837 (Colorectal), 72 hours, inhibition data
[16] = Homo sapiens, KYSE-410, Esophageal, Additional Single Agent Responses (inhibition, % I), 72 h
[17] = Homo sapiens, KYSE-410, Esophageal, growth inhibition (GI) curve, single agent, 72 h
[18] = KYSE-410 (KRAS G12C), enhancer + MEI-522 (Voruciclib), 72 h;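 on Best CI Level: inhibition effect level at which the best CI was calculated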
[19] = enhancer combined with MEI-522 (Voruciclib), KYSE-410 (Esophageal), 72 hours, inhibition data
[20] = HCC44 (KRAS G12C), enhancer + MEI-522 (Voruciclib), 72 h;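 on Best CI Level: inhibition effect level at which the best CI was calculated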
[21] = Homo sapiens, HCC44, Lung, Additional Single Agent Responses (inhibition, % I), 72 h
[22] = Homo sapiens, HCC44, Lung, growth inhibition (GI) curve, single agent, 72 h
[23] = enhancer combined with MEI-522 (Voruciclib), HCC44 (Lung), 72 hours, inhibition data

- EC50 ([1]; Homo sapiens, NCl-H358, Lung, Additional Single Agent Responses (inhibition, % I), 72 h): 6.1 nM
- EC50 ([1]; Homo sapiens, NCl-H358, Lung, growth inhibition (GI) curve, single agent, 72 h): 6.1 nM
- IC50 ([1]; Homo sapiens, NCI-H358, NCl-H358, Lung, Additional Single Agent Responses (inhibition, % I), 72 h): 7.8 nM
- GI50 ([1]; Homo sapiens, NCI-H358, NCl-H358, Lung, growth inhibition (GI) curve, single agent, 72 h): 6.5 nM
- EC50 [2, 8]: 4.7 nM
- EC50 [2, 9]: 4.9 nM
- IC50 [2, 8]: 4.9 nM
- GI50 [2, 9]: 4.6 nM
- EC50 [3, 12]: 13.8 nM
- EC50 [3, 13]: 20.1 nM
- IC50 [3, 12]: 21 nM
- GI50 [3, 13]: 14.8 nM
- EC50 [5, 21]: 4.2 nM
- EC50 [5, 22]: 4.5 nM
- IC50 [5, 21]: 6.3 nM
- GI50 [5, 22]: 4.4 nM
SMILES: CC[C@@H]1C(=O)N(C)c2cnc(Nc3ccc(C(=O)N[C@H]4CC[C@H](N5CCN(CC6CC6)CC5)CC4)cc3OC)nc2N1C(C)C [Volasertib]
- Emax ([1]; Homo sapiens, NCI-H358, NCl-H358, Lung, Additional Single Agent Responses, 72 h, read-out: Max Response (% I)): 75%
- Emax ([1]; Homo sapiens, NCI-H358, NCl-H358, Lung, growth inhibition (GI), single agent, 72 h, read-out: Max Response (% GI)): 100%
- Bliss Volume [1, 6]: −1.58
- HSA volume [1, 6]: −4.12
- Loewe Volume [1, 6]: −3.93
- Synergy Score [1, 6]: 3.21
- Response Area ([1]; NCl-H358, Lung, Additional Single Agent Responses (inhibition, % I), 72 h): 3.44
- Response Area ([1]; NCl-H358, Lung, growth inhibition (GI), AUC, single agent, 72 h): 4.57
- Best CI [1, 7]: 0.80
- Best CI Level [1, 7]: 20
- Bliss Volume [1, 7]: −4.08
- HSA volume [1, 7]: −3.08
- Loewe Volume [1, 7]: −3.28
- Synergy Score [1, 7]: 0.69
- Emax ([2]; Homo sapiens, SW48, Colorectal, Additional Single Agent Responses, 72 h, read-out: Max Response (% I)): 95%
- Emax ([2]; Homo sapiens, SW48, Colorectal, growth inhibition (GI), single agent, 72 h, read-out: Max Response (% GI)): 174%
- Best CI [2, 10]: 0.11
- Bliss Volume [2, 10]: 8.81
- HSA volume [2, 10]: −0.59
- Loewe Volume [2, 10]: 1.23
- Synergy Score [2, 10]: 11.75
- Response Area ([2]; SW48, Colorectal, Additional Single Agent Responses (inhibition, % I), 72 h): 4.47
- Response Area ([2]; SW48, Colorectal, growth inhibition (GI), AUC, single agent, 72 h): 6.76
- Best CI [2, 11]: 0.60
- Bliss Volume [2, 11]: 0.08
- HSA volume [2, 11]: 0.40
- Loewe Volume [2, 11]: 0.43
- Synergy Score [2, 11]: 1.83
- Best CI Level ([2]; enhancer combined with MEI-522 (Voruciclib), SW48 (Colorectal), 72 hours, inhibition data, unit assumed): 20%
- Emax ([3]; Homo sapiens, SW837, Colorectal, Additional Single Agent Responses, 72 h, read-out: Max Response (% I)): 79%
- Emax ([3]; Homo sapiens, SW837, Colorectal, growth inhibition (GI), single agent, 72 h, read-out: Max Response (% GI)): 128%
- Best CI [3, 14]: 0.72
- Bliss Volume [3, 14]: 4.69
- HSA volume [3, 14]: 2.14
- Loewe Volume [3, 14]: 0.39
- Synergy Score [3, 14]: 5.42
- Response Area ([3]; SW837, Colorectal, Additional Single Agent Responses (inhibition, % I), 72 h): 3.61
- Response Area ([3]; SW837, Colorectal, growth inhibition (GI), AUC, single agent, 72 h): 5.63
- Best CI [3, 15]: 0.83
- Best CI Level [3, 15]: 20
- Bliss Volume [3, 15]: 0.17
- HSA volume [3, 15]: 1.01
- Loewe Volume [3, 15]: 0.29
- Synergy Score [3, 15]: 1.39
- EC50 [4, 16]: 8.6 nM
- EC50 [4, 17]: 8.5 nM
- IC50 [4, 16]: 13.1 nM
- Emax ([4]; Homo sapiens, KYSE-410, Esophageal, Additional Single Agent Responses, 72 h, read-out: Max Response (% I)): 74%
- GI50 [4, 17]: 10.1 nM
- Emax ([4]; Homo sapiens, KYSE-410, Esophageal, growth inhibition (GI), single agent, 72 h, read-out: Max Response (% GI)): 89%
- Best CI [4, 18]: 1.85
- Bliss Volume [4, 18]: −3.04
- HSA volume [4, 18]: −2.10
- Loewe Volume [4, 18]: −3.58
- Synergy Score [4, 18]: 0.91
- Response Area ([4]; KYSE-410, Esophageal, Additional Single Agent Responses (inhibition, % I), 72 h): 3.52
- Response Area ([4]; KYSE-410, Esophageal, growth inhibition (GI), AUC, single agent, 72 h): 4.24
- Best CI [4, 19]: 0.40
- Bliss Volume [4, 19]: −3.11
- HSA volume [4, 19]: −1.71
- Loewe Volume [4, 19]: −2.95
- Synergy Score [4, 19]: 0.62
- Best CI Level ([4]; enhancer combined with MEI-522 (Voruciclib), KYSE-410 (Esophageal), 72 hours, inhibition data, unit assumed): 70%
- Best CI [5, 20]: 0.55
- Bliss Volume [5, 20]: 6.88
- HSA volume [5, 20]: 2.51
- Loewe Volume [5, 20]: 0.65
- Synergy Score [5, 20]: 6.97
- Response Area ([5]; HCC44, Lung, Additional Single Agent Responses (inhibition, % I), 72 h): 4.07
- Response Area ([5]; HCC44, Lung, growth inhibition (GI), AUC, single agent, 72 h): 5.39
- Emax ([5]; Homo sapiens, HCC44, Lung, Additional Single Agent Responses, 72 h, read-out: Max Response (% I)): 81%
- Emax ([5]; Homo sapiens, HCC44, Lung, growth inhibition (GI), single agent, 72 h, read-out: Max Response (% GI)): 113%
- Best CI [5, 23]: 0.83
- Bliss Volume [5, 23]: −1.88
- HSA volume [5, 23]: 0.12
- Loewe Volume [5, 23]: −0.92
- Synergy Score [5, 23]: 1.13
- Best CI Level ([5]; enhancer combined with MEI-522 (Voruciclib), HCC44 (Lung), 72 hours, inhibition data, unit assumed): 80%
